Data published in ChEMBL document CHEMBL3885881, “DrugMatrix”.

Species: Rattus norvegicus
Test: DrugMatrix - Regimen: Daily Repeat
Assay type: toxicity, organism-based, Sprague-Dawley
Set-up: regimen Daily Repeat, gender Male, age 6-8 weeks
Conditions: in vivo, vehicle 100 % SALINE; for TOTAL PROTEIN / ALANINE AMINOTRANSFERASE / ALKALINE PHOSPHATASE / ASPARTATE AMINOTRANSFERASE / BLOOD UREA NITROGEN / CARBON DIOXIDE / CHLORIDE / CHOLESTEROL / CREATINE PHOSPHOKINASE / CREATININE / GLUCOSE / LACTATE DEHYDROGENASE / LIPASE / PHOSPHORUS / POTASSIUM / TOTAL BILIRUBIN / URIC ACID / ALBUMIN: tissue Plasma; for ABSOLUTE BASOPHIL / ABSOLUTE EOSINOPHIL / ABSOLUTE LYMPHOCYTE / ABSOLUTE MONOCYTE / ABSOLUTE SEGMENTED NEUTROPHIL / BASOPHIL / EOSINOPHIL / ERYTHROCYTE COUNT / HEMATOCRIT / HEMOGLOBIN / LEUKOCYTE COUNT / LYMPHOCYTE / MEAN CORPUSCULAR HEMOGLOBIN / MEAN CORPUSCULAR HEMOGLOBIN CONCENTRATION / MEAN CORPUSCULAR VOLUME / MONOCYTE / NEUTROPHIL / NUCLEATED RED BLOOD CELLS / PLATELET COUNT: tissue Blood
[1] = iv, 0 mg/kg, 72 h, dose level Control, time 3 day
[2] = iv, 0 mg/kg, 120 h, dose level Control, time 5 day
[3] = iv, 6 mg/kg, 72 h, dose level Low, time 3 day
[4] = iv, 6 mg/kg, 120 h, dose level Low, time 5 day
[5] = iv, 14 mg/kg, 72 h, dose level High, time 3 day
[6] = iv, 14 mg/kg, 120 h, dose level High, time 5 day

## CARBOPLATIN
ip, 5 mg/kg, […], route intraperitoneal, dose level High, time 28 day
  TOTAL PROTEIN: 6.92 G/DL
[1]
  ABSOLUTE BASOPHIL: 0 CELLS/uL
  ABSOLUTE EOSINOPHIL: 0 CELLS/uL
  ABSOLUTE LYMPHOCYTE: 7026.17 CELLS/uL
  ABSOLUTE MONOCYTE: 44.33 CELLS/uL
  ABSOLUTE SEGMENTED NEUTROPHIL: 379.5 CELLS/uL
  BASOPHIL: 0%
  EOSINOPHIL: 0%
  ERYTHROCYTE COUNT: 5.49 x10E6/uL
  HEMATOCRIT: 33.67%
  HEMOGLOBIN: 13.17 G/DL
  LEUKOCYTE COUNT: 7.45 x10E3/uL
  LYMPHOCYTE: 94%
  MEAN CORPUSCULAR HEMOGLOBIN: 24.03 pg
  MEAN CORPUSCULAR HEMOGLOBIN CONCENTRATION: 39.15 G/DL
  MEAN CORPUSCULAR VOLUME: 61.4 fL
  MONOCYTE: 0.67%
  NEUTROPHIL: 5.33%
  NUCLEATED RED BLOOD CELLS: 0.17 /100WBC
  PLATELET COUNT: 1062.5 x10E3/uL
  ALANINE AMINOTRANSFERASE: 53.17 u/L
  ALKALINE PHOSPHATASE: 339.83 u/L
  ASPARTATE AMINOTRANSFERASE: 83.33 u/L
  BLOOD UREA NITROGEN: 16 mg/dL
  CARBON DIOXIDE: 32.5 mmol/L
  CHLORIDE: 98 MEQ/L
  CHOLESTEROL: 74.67 mg/dL
  CREATINE PHOSPHOKINASE: 284 u/L
  CREATININE: 0.2 mg/dL
  GLUCOSE: 128.67 mg/dL
  LACTATE DEHYDROGENASE: 110.33 u/L
  LIPASE: 9 u/L
  PHOSPHORUS: 11.73 mg/dL
  POTASSIUM: 6.34 MEQ/L
  TOTAL BILIRUBIN: 0.18 mg/dL
  TOTAL PROTEIN: 6.2 G/DL
  URIC ACID: 1.28 mg/dL
[2]
  ABSOLUTE BASOPHIL: 0 CELLS/uL
  ABSOLUTE EOSINOPHIL: 26.67 CELLS/uL
  ABSOLUTE LYMPHOCYTE: 8334.17 CELLS/uL
  ABSOLUTE MONOCYTE: 29.5 CELLS/uL
  ABSOLUTE SEGMENTED NEUTROPHIL: 593 CELLS/uL
  BASOPHIL: 0%
  EOSINOPHIL: 0.33%
  ERYTHROCYTE COUNT: 5.44 x10E6/uL
  HEMATOCRIT: 33.77%
  HEMOGLOBIN: 13.05 G/DL
  LEUKOCYTE COUNT: 8.98 x10E3/uL
  LYMPHOCYTE: 92.33%
  MEAN CORPUSCULAR HEMOGLOBIN: 24 pg
  MEAN CORPUSCULAR HEMOGLOBIN CONCENTRATION: 38.67 G/DL
  MEAN CORPUSCULAR VOLUME: 62.05 fL
  MONOCYTE: 0.33%
  NEUTROPHIL: 7%
  NUCLEATED RED BLOOD CELLS: 0 /100WBC
  PLATELET COUNT: 987 x10E3/uL
  ALANINE AMINOTRANSFERASE: 43.5 u/L
  ALKALINE PHOSPHATASE: 310.17 u/L
  ASPARTATE AMINOTRANSFERASE: 76.67 u/L
  BLOOD UREA NITROGEN: 17 mg/dL
  CHLORIDE: 100.33 MEQ/L
  CHOLESTEROL: 69.33 mg/dL
  CREATINE PHOSPHOKINASE: 218.67 u/L
  CREATININE: 0.22 mg/dL
  GLUCOSE: 155.17 mg/dL
  PHOSPHORUS: 11.2 mg/dL
  POTASSIUM: 5.5 MEQ/L
  TOTAL BILIRUBIN: 0.18 mg/dL
  TOTAL PROTEIN: 5.97 G/DL
  URIC ACID: 0.88 mg/dL
[3]
  ABSOLUTE BASOPHIL: 0 CELLS/uL
  ABSOLUTE EOSINOPHIL: 20.67 CELLS/uL
  ABSOLUTE LYMPHOCYTE: 6996.67 CELLS/uL
  ABSOLUTE MONOCYTE: 29.33 CELLS/uL
  ABSOLUTE SEGMENTED NEUTROPHIL: 353.33 CELLS/uL
  BASOPHIL: 0%
  EOSINOPHIL: 0.33%
  ERYTHROCYTE COUNT: 5.49 x10E6/uL
  HEMATOCRIT: 35.33%
  HEMOGLOBIN: 13.67 G/DL
  LEUKOCYTE COUNT: 7.4 x10E3/uL
  LYMPHOCYTE: 94.67%
  MEAN CORPUSCULAR HEMOGLOBIN CONCENTRATION: 38.67 G/DL
  MONOCYTE: 0.33%
  NEUTROPHIL: 4.67%
  NUCLEATED RED BLOOD CELLS: 0 /100WBC
  PLATELET COUNT: 803.67 x10E3/uL
  ALANINE AMINOTRANSFERASE: 44.67 u/L
  ALBUMIN: 4.3 G/DL
  ALKALINE PHOSPHATASE: 291.67 u/L
  ASPARTATE AMINOTRANSFERASE: 75.67 u/L
  CARBON DIOXIDE: 32 mmol/L
  CHLORIDE: 97.67 MEQ/L
  CHOLESTEROL: 72.33 mg/dL
  CREATINE PHOSPHOKINASE: 262.33 u/L
  CREATININE: 0.2 mg/dL
  GLUCOSE: 147.33 mg/dL
  LACTATE DEHYDROGENASE: 105 u/L
  LIPASE: 9 u/L
  POTASSIUM: 6.04 MEQ/L
  TOTAL BILIRUBIN: 0.17 mg/dL
  TOTAL PROTEIN: 6.3 G/DL
  URIC ACID: 1.1 mg/dL
[4]
  ABSOLUTE BASOPHIL: 0 CELLS/uL
  ABSOLUTE EOSINOPHIL: 0 CELLS/uL
  ABSOLUTE LYMPHOCYTE: 10376.67 CELLS/uL
  ABSOLUTE MONOCYTE: 36 CELLS/uL
  ABSOLUTE SEGMENTED NEUTROPHIL: 287.33 CELLS/uL
  BASOPHIL: 0%
  EOSINOPHIL: 0%
  ERYTHROCYTE COUNT: 5.55 x10E6/uL
  HEMATOCRIT: 34.6%
  LEUKOCYTE COUNT: 10.7 x10E3/uL
  LYMPHOCYTE: 97%
  MEAN CORPUSCULAR HEMOGLOBIN: 24.17 pg
  MEAN CORPUSCULAR HEMOGLOBIN CONCENTRATION: 38.73 G/DL
  MONOCYTE: 0.33%
  NEUTROPHIL: 2.67%
  NUCLEATED RED BLOOD CELLS: 0.33 /100WBC
  PLATELET COUNT: 1189.33 x10E3/uL
  ALANINE AMINOTRANSFERASE: 46 u/L
  ALKALINE PHOSPHATASE: 366 u/L
  ASPARTATE AMINOTRANSFERASE: 90.67 u/L
  CARBON DIOXIDE: 29 mmol/L
  CHOLESTEROL: 74.67 mg/dL
  CREATINE PHOSPHOKINASE: 348 u/L
  CREATININE: 0.38 mg/dL
  GLUCOSE: 158.33 mg/dL
  LACTATE DEHYDROGENASE: 130.67 u/L
  LIPASE: 9 u/L
  PHOSPHORUS: 10.43 mg/dL
  POTASSIUM: 5.45 MEQ/L
  TOTAL BILIRUBIN: 0.17 mg/dL
  TOTAL PROTEIN: 6.07 G/DL
  URIC ACID: 0.87 mg/dL
[5]
  ABSOLUTE BASOPHIL: 0 CELLS/uL
  ABSOLUTE EOSINOPHIL: 14 CELLS/uL
  ABSOLUTE LYMPHOCYTE: 7854 CELLS/uL
  ABSOLUTE MONOCYTE: 121.33 CELLS/uL
  ABSOLUTE SEGMENTED NEUTROPHIL: 410.67 CELLS/uL
  BASOPHIL: 0%
  EOSINOPHIL: 0.33%
  ERYTHROCYTE COUNT: 6.2 x10E6/uL
  HEMATOCRIT: 38.03%
  HEMOGLOBIN: 15.03 G/DL
  LEUKOCYTE COUNT: 8.4 x10E3/uL
  LYMPHOCYTE: 94%
  MEAN CORPUSCULAR HEMOGLOBIN: 24.43 pg
  MEAN CORPUSCULAR HEMOGLOBIN CONCENTRATION: 39.67 G/DL
  NEUTROPHIL: 4%
  NUCLEATED RED BLOOD CELLS: 1 /100WBC
  PLATELET COUNT: 574 x10E3/uL
  ALANINE AMINOTRANSFERASE: 46.67 u/L
  ALBUMIN: 4.5 G/DL
  ALKALINE PHOSPHATASE: 398.67 u/L
  ASPARTATE AMINOTRANSFERASE: 94.33 u/L
  BLOOD UREA NITROGEN: 15.67 mg/dL
  CARBON DIOXIDE: 29.33 mmol/L
  CHLORIDE: 97 MEQ/L
  CHOLESTEROL: 78.33 mg/dL
  CREATINE PHOSPHOKINASE: 381 u/L
  CREATININE: 0.22 mg/dL
  GLUCOSE: 145.33 mg/dL
  LACTATE DEHYDROGENASE: 168.33 u/L
  LIPASE: 11 u/L
  POTASSIUM: 6.3 MEQ/L
  TOTAL BILIRUBIN: 0.23 mg/dL
  TOTAL PROTEIN: 6.6 G/DL
  URIC ACID: 1.1 mg/dL
[6]
  ABSOLUTE BASOPHIL: 0 CELLS/uL
  ABSOLUTE EOSINOPHIL: 0 CELLS/uL
  ABSOLUTE LYMPHOCYTE: 7567 CELLS/uL
  ABSOLUTE MONOCYTE: 38.67 CELLS/uL
  ABSOLUTE SEGMENTED NEUTROPHIL: 427.67 CELLS/uL
  BASOPHIL: 0%
  EOSINOPHIL: 0%
  ERYTHROCYTE COUNT: 5.69 x10E6/uL
  HEMATOCRIT: 34.77%
  HEMOGLOBIN: 13.5 G/DL
  LEUKOCYTE COUNT: 8.03 x10E3/uL
  LYMPHOCYTE: 94.33%
  MEAN CORPUSCULAR HEMOGLOBIN CONCENTRATION: 38.83 G/DL
  MONOCYTE: 0.33%
  NEUTROPHIL: 5.33%
  NUCLEATED RED BLOOD CELLS: 0.33 /100WBC
  PLATELET COUNT: 1070.33 x10E3/uL
  ALANINE AMINOTRANSFERASE: 54 u/L
  ALKALINE PHOSPHATASE: 340 u/L
  ASPARTATE AMINOTRANSFERASE: 84.33 u/L
  BLOOD UREA NITROGEN: 18 mg/dL
  CARBON DIOXIDE: 28 mmol/L
  CHOLESTEROL: 71.67 mg/dL
  CREATINE PHOSPHOKINASE: 378.67 u/L
  CREATININE: 0.28 mg/dL
  GLUCOSE: 151.67 mg/dL
  LACTATE DEHYDROGENASE: 133 u/L
  LIPASE: 11.67 u/L
  PHOSPHORUS: 10.93 mg/dL
  POTASSIUM: 4.99 MEQ/L
  TOTAL BILIRUBIN: 0.17 mg/dL
  TOTAL PROTEIN: 6.07 G/DL
  URIC ACID: 0.83 mg/dL
